From patent US20240293586A1, “RA[…] AND USE THEREOF” (OSAKA UNIVERSITY, priority 2021, published 2024)

Tests used:
Assay type in all cases: in vivo, SCID mice
[1] = system: human prostate cancer cells (LNCaP); test: Biodistribution test in human prostate cancer-transplanted mice or normal mice; details: approximately 0.1 MBq, 3 and 24 hours after administration; for accumulation in the tumors (radioactivity distribution % ID, % ID/g): tumor-transplanted mice, FIGS. 8, 10; for accumulation in the kidney (radioactivity distribution % ID, % ID/g): tumor-transplanted or normal mice, FIGS. 7 to 11
Method: SCID mice (9 weeks old, male, n=5) were subcutaneously transplanted with human prostate cancer cells (LNCaP, 0.5×10^7 cells/mouse), and then kept for one month. Compound 3, 4, 7 or 8 (approximately 0.1 MBq) was administered to the tumor-transplanted mice or normal mice, and the mice were dissection under isoflurane inhalation anesthesia at 3 and 24 hours after administration to collect various organs including blood, urine and tumors. The radioactivity distribution (% ID) and radioactivity distribution per 1 g of organ weight (% ID/g) were measured for each organ.

[2] = system: human prostate cancer cells (LNCaP); test: Therapeutic test in human prostate cancer-transplanted mice (Experimental Example 4); details: 0.4 MBq or 1 MBq, n=3; kept for 3 weeks; FIGS. 12 to 14
Method: SCID mice (9 weeks old, male, n=5) were subcutaneously transplanted with human prostate cancer cells (LNCaP, 0.5×10^7 cells/mouse), and then kept for one month. The tumor-transplanted mice were divided into Compound 3, 7 or 8 administration group (0.4 MBq or 1 MBq, n=3) and control group (CTL, n=2 or 3), and kept for 3 weeks thereafter, and changes in tumor size and body weight were measured.

[3] = system: human prostate cancer cells (LNCaP); test: Imaging of human prostate cancer-transplanted mice (planar images, SPECT camera); details: FIG. 5; for accumulation at the tumor-transplanted site: 0.43±0.01 MBq via the tail vein
Method: (§1) SCID mice (9 weeks old, male, n=5) were subcutaneously transplanted with human prostate cancer cells (LNCaP, 0.5×10^7 cells/mouse), and then kept for one month. The mice were divided into Compound 3 administration group (n=3) and control group (n=2). For the Compound 3 administration group, Compound 3 (0.43±0.01 MBq) was administered via the tail vein. For the control group, physiological saline was administered. The mice in the Compound 3 administration group (n=3) were anesthetized with isoflurane inhalation at 3 and 24 hours after administration, and the planar images were taken using a SPECT camera (E-cam, Siemens) (matrix size: 256×256, pixel size 1.2×1.2 mm, collimator: LEAP, energy window: 79 keV±20%, image acquisition time 10 min or 20 min).

[4] = Blood biochemical tests and histopathological examination after the therapeutic test; details: 3 weeks after 0.5 MBq
Method: (§2) The mice in the Compound 3 administration group (0.5 MBq, n=3) and control group (CTL, n=2) of Experimental Example 1 were kept for 3 weeks thereafter, and changes in tumor size were measured. The tumor size was standardized by size at the time of drug administration, and the relative ratio (fold change) to subsequent tumor size was calculated. The tumor size in the control group increased over time, and it increased about seven times after three weeks. […] The mice were dissected and blood biochemical tests were performed.

[5] = system: human prostate cancer cells (LNCaP); test: Therapeutic test in human prostate cancer-transplanted mice with Compound 3 (tumor size); details: 0.5 MBq, FIG. 6
Method: as §1, §2

[6] = planar imaging at 3 and 24 hours after administration

Compound	accumulation in the tumors (radioactivity distribution % ID, % ID/g) [1]	accumulation in the kidney (radioactivity distribution % ID, % ID/g) [1]	change in tumor size versus control group [2]	accumulation at the tumor-transplanted site ([3]; 3 hours after administration)	accumulation at the tumor-transplanted site ([3]; 24 hours after administration)	accumulation in the kidneys [3, 6]	nonspecific accumulation in other organs [3, 6]	histopathological examination of kidneys, salivary glands and thyroid glands [4]	renal function marker values (blood biochemical tests) versus control group [4]	tumor size, relative ratio (fold change) to size at the time of drug administration ([5]; after three weeks, n=3, control increased about seven times) [times]	tumor size change ([5]; immediately after administration)
O=C(O)CC[C@H](NC(=O)N[C@@H](CCCCNC(=O)[C@@H](Cc1ccc2ccccc2c1)NC(=O)c1ccc(CNC(=O)[C@@H](CCC(=O)O)NC(=O)[C@@H](CCC(=O)O)NC(=O)Cc2ccc([211At])cc2)cc1)C(=O)O)C(=O)O [Compound 3]	significantly accumulated in the tumors	accumulate physiologically in the kidney	tumor growth inhibition was observed	accumulated at the tumor-transplanted site	the accumulation continued	physiological accumulation in the kidneys	no nonspecific accumulation in other organs was observed	no particular abnormal findings	no significant differences	0.27	tendency to shrink
O=C(O)CC[C@H](NC(=O)N[C@@H](CCCCNC(=O)[C@H](Cc1ccc2ccccc2c1)NC(=O)c1ccc(CNC(=O)[C@H](CCC(=O)O)NC(=O)[C@H](CCC(=O)O)NC(=O)Cc2ccc([211At])cc2)cc1)C(=O)O)C(=O)O [Compound 4]		accumulate physiologically in the kidney									
O=C(O)CC[C@H](NC(=O)N[C@@H](CCCCNC(=O)[C@@H](Cc1ccc2ccccc2c1)NC(=O)c1ccc(CNC(=O)CCC(=O)NCCCC[C@H](NC(=O)CNC(=O)Cc2ccc([211At])cc2)C(=O)O)cc1)C(=O)O)C(=O)O [Compound 7]	significantly accumulated in the tumors	accumulate physiologically in the kidney	tumor growth inhibition was observed								
O=C(O)CC[C@H](NC(=O)N[C@@H](CCCCNC(=O)[C@@H](Cc1ccc2ccccc2c1)NC(=O)c1ccc(CNC(=O)[C@@H](CCC(=O)O)NC(=O)[C@@H](CCC(=O)O)NC(=O)CCC(=O)NCCCC[C@H](NC(=O)CNC(=O)Cc2ccc([211At])cc2)C(=O)O)cc1)C(=O)O)C(=O)O [Compound 8]		accumulate physiologically in the kidney	tumor growth inhibition was observed								
